Data reported in PubChem BioAssay (NCI).
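Five compound concentrations were applied to cells in 96-well plates for 48 hours; endpoints were derived by simple linear interpolation of the resulting dose-response curve. GI50: concentration for 50% inhibition of growth. TGI: concentration producing complete growth inhibition.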

Columns and labels:
Assay in all cases: growth of human tumour cells (NCI), 48 h
OVCAR-8 ovarian = system: OVCAR-8 ovarian
M14 melanoma = system: M14 melanoma
UACC-257 melanoma = system: UACC-257 melanoma
NCI-H522 lung = system: NCI-H522 lung
SW-620 colon = system: SW-620 colon
LOX IMVI melanoma = system: LOX IMVI melanoma
T-47D breast = system: T-47D breast
MDA-MB-231 breast = system: MDA-MB-231 breast
K-562 leukemia = system: K-562 leukemia
DU-145 prostate = system: DU-145 prostate
RPMI-8226 leukemia = system: RPMI-8226 leukemia
MCF7 breast = system: MCF7 breast
UACC-62 melanoma = system: UACC-62 melanoma
SK-MEL-28 melanoma = system: SK-MEL-28 melanoma
HCC-2998 colon = system: HCC-2998 colon
IGROV1 ovarian = system: IGROV1 ovarian
SK-MEL-2 melanoma = system: SK-MEL-2 melanoma
MDA-MB-435 = system: MDA-MB-435
HCT-116 colon = system: HCT-116 colon
786-0 renal = system: 786-0 renal
NCI-H460 lung = system: NCI-H460 lung
HCT-15 colon = system: HCT-15 colon
A498 renal = system: A498 renal
RXF 393 renal = system: RXF 393 renal
SK-OV-3 ovarian = system: SK-OV-3 ovarian
SN12C renal = system: SN12C renal
SNB-75 CNS = system: SNB-75 CNS
HT29 colon = system: HT29 colon
UO-31 renal = system: UO-31 renal
OVCAR-3 ovarian = system: OVCAR-3 ovarian
U251 CNS = system: U251 CNS
CAKI-1 renal = system: CAKI-1 renal
COLO 205 colon = system: COLO 205 colon
NCI/ADR-RES ovarian = system: NCI/ADR-RES ovarian
A549 NSCLC = system: A549 NSCLC
SF-268 CNS = system: SF-268 CNS
CCRF-CEM leukemia = system: CCRF-CEM leukemia
BT-549 breast = system: BT-549 breast
OVCAR-5 ovarian = system: OVCAR-5 ovarian
SF-295 CNS = system: SF-295 CNS
SK-MEL-5 melanoma = system: SK-MEL-5 melanoma
HS 578T breast = system: HS 578T breast
NCI-H23 lung = system: NCI-H23 lung
NCI-H226 lung = system: NCI-H226 lung
EKVX NSCLC = system: EKVX NSCLC
SF-539 CNS = system: SF-539 CNS
PC-3 prostate = system: PC-3 prostate
OVCAR-4 ovarian = system: OVCAR-4 ovarian
SNB-19 CNS = system: SNB-19 CNS
HOP-92 NSCLC = system: HOP-92 NSCLC
HOP-62 NSCLC = system: HOP-62 NSCLC
MOLT-4 leukemia = system: MOLT-4 leukemia

**Q.** For `O=c1[nH]c(=O)c2cc3cc(C4CC(O)C(CO)O4)ccc3cc2[nH]1` (centres undefined), which GI50 (OVCAR-8 ovarian) is on record?
**A.** > 100 µM

**Q.** And the TGI (OVCAR-8 ovarian)?
**A.** > 100 µM

**Q.** What about the GI50 (M14 melanoma) of the same compound?
**A.** > 100 µM

**Q.** What about the TGI (M14 melanoma) of the same compound?
**A.** > 100 µM

**Q.** And the GI50 (UACC-257 melanoma)?
**A.** > 100 µM

**Q.** And the TGI (UACC-257 melanoma)?
**A.** > 100 µM

**Q.** And the GI50 (NCI-H522 lung)?
**A.** 17.5 µM

**Q.** And the TGI (NCI-H522 lung)?
**A.** 87.8 µM

**Q.** And the GI50 (SW-620 colon)?
**A.** > 100 µM

**Q.** What about the TGI (SW-620 colon) of the same compound?
**A.** > 100 µM

**Q.** And the GI50 (LOX IMVI melanoma)?
**A.** > 100 µM

**Q.** What about the TGI (LOX IMVI melanoma) of the same compound?
**A.** > 100 µM

**Q.** And the GI50 (T-47D breast)?
**A.** > 100 µM

**Q.** And the TGI (T-47D breast)?
**A.** > 100 µM

**Q.** What about the GI50 (MDA-MB-231 breast) of the same compound?
**A.** 65.7 µM

**Q.** And the TGI (MDA-MB-231 breast)?
**A.** > 100 µM

**Q.** What about the GI50 (K-562 leukemia) of the same compound?
**A.** > 100 µM

**Q.** What about the TGI (K-562 leukemia) of the same compound?
**A.** > 100 µM

**Q.** What about the GI50 (DU-145 prostate) of the same compound?
**A.** > 100 µM

**Q.** And the TGI (DU-145 prostate)?
**A.** > 100 µM

**Q.** What about the GI50 (RPMI-8226 leukemia) of the same compound?
**A.** > 100 µM

**Q.** And the TGI (RPMI-8226 leukemia)?
**A.** > 100 µM

**Q.** And the GI50 (MCF7 breast)?
**A.** > 100 µM

**Q.** What about the TGI (MCF7 breast) of the same compound?
**A.** > 100 µM

**Q.** What about the GI50 (UACC-62 melanoma) of the same compound?
**A.** > 100 µM

**Q.** What about the TGI (UACC-62 melanoma) of the same compound?
**A.** > 100 µM

**Q.** What about the GI50 (SK-MEL-28 melanoma) of the same compound?
**A.** > 100 µM

**Q.** What about the TGI (SK-MEL-28 melanoma) of the same compound?
**A.** > 100 µM

**Q.** What about the GI50 (HCC-2998 colon) of the same compound?
**A.** > 100 µM

**Q.** What about the TGI (HCC-2998 colon) of the same compound?
**A.** > 100 µM

**Q.** And the GI50 (IGROV1 ovarian)?
**A.** 1.7 µM

**Q.** And the TGI (IGROV1 ovarian)?
**A.** > 100 µM

**Q.** And the GI50 (SK-MEL-2 melanoma)?
**A.** 11.3 µM

**Q.** And the TGI (SK-MEL-2 melanoma)?
**A.** > 100 µM

**Q.** What about the GI50 (MDA-MB-435) of the same compound?
**A.** > 100 µM

**Q.** What about the TGI (MDA-MB-435) of the same compound?
**A.** > 100 µM

**Q.** And the GI50 (HCT-116 colon)?
**A.** > 100 µM

**Q.** And the TGI (HCT-116 colon)?
**A.** > 100 µM

**Q.** What about the GI50 (786-0 renal) of the same compound?
**A.** > 100 µM

**Q.** And the TGI (786-0 renal)?
**A.** > 100 µM

**Q.** What about the GI50 (NCI-H460 lung) of the same compound?
**A.** > 100 µM

**Q.** And the TGI (NCI-H460 lung)?
**A.** > 100 µM

**Q.** What about the GI50 (HCT-15 colon) of the same compound?
**A.** > 100 µM

**Q.** What about the TGI (HCT-15 colon) of the same compound?
**A.** > 100 µM

**Q.** And the GI50 (A498 renal)?
**A.** > 100 µM

**Q.** And the TGI (A498 renal)?
**A.** > 100 µM

**Q.** What about the GI50 (RXF 393 renal) of the same compound?
**A.** > 100 µM

**Q.** And the TGI (RXF 393 renal)?
**A.** > 100 µM

**Q.** And the GI50 (SK-OV-3 ovarian)?
**A.** > 100 µM

**Q.** And the TGI (SK-OV-3 ovarian)?
**A.** > 100 µM

**Q.** And the GI50 (SN12C renal)?
**A.** > 100 µM

**Q.** And the TGI (SN12C renal)?
**A.** > 100 µM

**Q.** What about the GI50 (SNB-75 CNS) of the same compound?
**A.** 34.5 µM

**Q.** And the TGI (SNB-75 CNS)?
**A.** > 100 µM

**Q.** And the GI50 (HT29 colon)?
**A.** > 100 µM

**Q.** What about the TGI (HT29 colon) of the same compound?
**A.** > 100 µM

**Q.** What about the GI50 (UO-31 renal) of the same compound?
**A.** 8.48 µM

**Q.** And the TGI (UO-31 renal)?
**A.** 67 µM

**Q.** What about the GI50 (OVCAR-3 ovarian) of the same compound?
**A.** > 100 µM

**Q.** What about the TGI (OVCAR-3 ovarian) of the same compound?
**A.** > 100 µM

**Q.** What about the GI50 (U251 CNS) of the same compound?
**A.** > 100 µM

**Q.** What about the TGI (U251 CNS) of the same compound?
**A.** > 100 µM

**Q.** What about the GI50 (CAKI-1 renal) of the same compound?
**A.** > 100 µM

**Q.** And the TGI (CAKI-1 renal)?
**A.** > 100 µM

**Q.** And the GI50 (COLO 205 colon)?
**A.** > 100 µM

**Q.** What about the TGI (COLO 205 colon) of the same compound?
**A.** > 100 µM

**Q.** What about the GI50 (NCI/ADR-RES ovarian) of the same compound?
**A.** > 100 µM

**Q.** And the TGI (NCI/ADR-RES ovarian)?
**A.** > 100 µM

**Q.** What about the GI50 (A549 NSCLC) of the same compound?
**A.** > 100 µM

**Q.** And the TGI (A549 NSCLC)?
**A.** > 100 µM

**Q.** What about the GI50 (SF-268 CNS) of the same compound?
**A.** > 100 µM

**Q.** What about the TGI (SF-268 CNS) of the same compound?
**A.** > 100 µM

**Q.** What about the GI50 (CCRF-CEM leukemia) of the same compound?
**A.** > 100 µM

**Q.** And the TGI (CCRF-CEM leukemia)?
**A.** > 100 µM

**Q.** And the GI50 (BT-549 breast)?
**A.** > 100 µM

**Q.** What about the TGI (BT-549 breast) of the same compound?
**A.** > 100 µM

**Q.** What about the GI50 (OVCAR-5 ovarian) of the same compound?
**A.** > 100 µM

**Q.** What about the TGI (OVCAR-5 ovarian) of the same compound?
**A.** > 100 µM

**Q.** What about the GI50 (SF-295 CNS) of the same compound?
**A.** > 100 µM

**Q.** And the TGI (SF-295 CNS)?
**A.** > 100 µM

**Q.** And the GI50 (SK-MEL-5 melanoma)?
**A.** > 100 µM

**Q.** What about the TGI (SK-MEL-5 melanoma) of the same compound?
**A.** > 100 µM

**Q.** What about the GI50 (HS 578T breast) of the same compound?
**A.** > 100 µM

**Q.** And the TGI (HS 578T breast)?
**A.** > 100 µM

**Q.** What about the GI50 (NCI-H23 lung) of the same compound?
**A.** > 100 µM

**Q.** And the TGI (NCI-H23 lung)?
**A.** > 100 µM

**Q.** And the GI50 (NCI-H226 lung)?
**A.** > 100 µM

**Q.** What about the TGI (NCI-H226 lung) of the same compound?
**A.** > 100 µM

**Q.** And the GI50 (EKVX NSCLC)?
**A.** > 100 µM

**Q.** And the TGI (EKVX NSCLC)?
**A.** > 100 µM

**Q.** And the GI50 (SF-539 CNS)?
**A.** > 100 µM

**Q.** And the TGI (SF-539 CNS)?
**A.** > 100 µM

**Q.** What about the GI50 (PC-3 prostate) of the same compound?
**A.** > 100 µM

**Q.** And the TGI (PC-3 prostate)?
**A.** > 100 µM

**Q.** What about the GI50 (OVCAR-4 ovarian) of the same compound?
**A.** 58.7 µM

**Q.** And the TGI (OVCAR-4 ovarian)?
**A.** > 100 µM

**Q.** What about the GI50 (SNB-19 CNS) of the same compound?
**A.** > 100 µM

**Q.** What about the TGI (SNB-19 CNS) of the same compound?
**A.** > 100 µM

**Q.** What about the GI50 (HOP-92 NSCLC) of the same compound?
**A.** > 100 µM

**Q.** What about the TGI (HOP-92 NSCLC) of the same compound?
**A.** > 100 µM

**Q.** And the GI50 (HOP-62 NSCLC)?
**A.** > 100 µM

**Q.** And the TGI (HOP-62 NSCLC)?
**A.** > 100 µM

**Q.** And the GI50 (MOLT-4 leukemia)?
**A.** > 100 µM

**Q.** And the TGI (MOLT-4 leukemia)?
**A.** > 100 µM
